{
  "source": "patent US20160011174A1",
  "about": "“Assay for Determining the Cell Number in Cultured Cells” (KEELE UNIVERSITY, priority 2013, published 2016)",
  "key": {"[1]": {"system": "hepG2 cells", "test": "Removal of added AA from DMEM medium by hepG2 cells (SIFT-MS headspace)", "format": "in vitro ADME, human", "details": "20 million hepG2 cells; for headspace AA concentration after incubation with cells: 16 hours", "description": "(§1) The inhibitor solutions were then added to volumes of medium so that the final DMSO concentration was always 0.1% v/v (or ˜14 500 μM). In some experiments, inhibitors were added to hMSCs during routine culture, some 24 hours prior to proceeding to the next phase of the analysis, but this pre-treatment was not employed in the hepG2 experiments. […] The importance of precursor ions in the analysis is explained further in the SIFT-MS section below. The method used for the preparation of cell cultures for SIFTMS headspace analysis was adapted from the previous studies published in 2003 (ref. 21) and 2009 (ref. 22). On the evening prior to the analysis, the cells were removed from the tissue culture flasks using trypsin, counted using a haemocytometer, and suspended in fresh DMEM media containing the ALDH inhibitor where appropriate, inside 150 mL glass bottles. […] The headspace of each bottle was purged with dry cylinder air before the bottles were finally sealed with metal caps, which incorporate rubber septa, and placed inside an incubator to be held at 37° C. for around 16 hours/overnight.\nThe methodology of SIFT-MS analyses for the sampling and quantification of compounds in the headspace of liquid samples has been described in detail previously (Refs 21,22,27-32). […] The product ions and the precursor ions are then analysed by a quadrupole mass spectrometer/detection system. Throughout the present study the instrument was operated in the multiple ion monitoring (MIM) mode, during which the desired precursor ion and its hydrates (Ref 33) and the characteristic product ions, are continuously monitored. This system, in combination with the previously compiled kinetics data for the reactions between the precursor ions and neutral molecules (Refs 34,35 rapidly allows the simultaneous absolute quantification of the concentrations of several selected volatile compounds of interest. The simultaneous detection and analysis of AA and DMS in a mixture presents a peculiar problem to SIFT-MS because of the overlap of characteristic product ions on which the analysis depends. However, the ion chemistry involved has been studied in detail and the kinetics database entries required for the accurate analyses of these two compounds by SIFT-MS have been constructed by following the guidelines given by previous studies (refs 34,35). In brief, AA was analysed using H3O^+ precursor ions and the unique protonated AA characteristic product ion at m/z 45, as described in detail in a recent paper (Ref 36). […]\nRemoval of AA from DMEM medium by cellular action. […] Identical medium samples without cells were also analysed (as described above) to obtain the starting (background) headspace AA concentration. […]"}, "[2]": {"system": "ALDH", "test": "SIFT-MS headspace acetaldehyde (AA) in hepG2 cultures with ALDH inhibitors", "format": "cell-based, human", "description": "(§2) Human mesenchymal stem cells, hMSCs, are a primary cell type, and were isolated from a bone marrow aspirate sample (person; Lonza, US) using the plastic-adherence methodology and the hepG2 cells are of a human hepatocellular carcinoma cell line (Eton Bioscience, US), a cell line commonly used for the study of liver function. In both cases, the cells were cultured to confluence in Dulbecco's modified Eagle's medium (DMEM; Lonza, UK), supplemented with 10% v/v foetal bovine serum (FBS; Lonza, UK), 50 U mL^−1 penicillin-streptomycin (Lonza, UK) and 2 mM L-glutamine (Lonza, UK). The hMSCs additionally contained 1% v/v non-essential amino acids. The hMSCs were not cultured beyond passage number 4, whereas the well-differentiated hepG2 cells were analysed before passage number 20.\nThe inhibitor solutions were then added to volumes of medium so that the final DMSO concentration was always 0.1% v/v (or ˜14 500 μM). In some experiments, inhibitors were added to hMSCs during routine culture, some 24 hours prior to proceeding to the next phase of the analysis, but this pre-treatment was not employed in the hepG2 experiments. […] On the evening prior to the analysis, the cells were removed from the tissue culture flasks using trypsin, counted using a haemocytometer, and suspended in fresh DMEM media containing the ALDH inhibitor where appropriate, inside 150 mL glass bottles. […]\n(§3) The methodology of SIFT-MS analyses for the sampling and quantification of compounds in the headspace of liquid samples has been described in detail previously (Refs 21,22,27-32). […] The product ions and the precursor ions are then analysed by a quadrupole mass spectrometer/detection system. Throughout the present study the instrument was operated in the multiple ion monitoring (MIM) mode, during which the desired precursor ion and its hydrates (Ref 33) and the characteristic product ions, are continuously monitored. […] In brief, AA was analysed using H3O^+ precursor ions and the unique protonated AA characteristic product ion at m/z 45, as described in detail in a recent paper (Ref 36). […]"}, "[3]": {"system": "hepG2 cells", "test": "SIFT-MS headspace DMS in hepG2 cultures (DMSO reduction to DMS)", "format": "cell-based, human", "description": "as §2, §1, §3"}, "[4]": {"system": "ALDH", "test": "SIFT-MS headspace AA in hMSC cultures with ALDH inhibitors", "format": "cell-based, human", "details": "approximately 5(10^6) hMSCs, 24 hours pre-treatment plus 16 hours sealed incubation", "description": "as §2\n(§4) The inhibitor solutions were then added to volumes of medium so that the final DMSO concentration was always 0.1% v/v (or ˜14 500 μM). […] On the evening prior to the analysis, the cells were removed from the tissue culture flasks using trypsin, counted using a haemocytometer, and suspended in fresh DMEM media containing the ALDH inhibitor where appropriate, inside 150 mL glass bottles. […]\n(§5) The methodology of SIFT-MS analyses for the sampling and quantification of compounds in the headspace of liquid samples has been described in detail previously (Refs 21,22,27-32). […]"}, "[5]": {"system": "hMSCs", "test": "SIFT-MS headspace DMS in hMSC cultures (DMSO reduction to DMS)", "format": "cell-based, human", "details": "approximately 5(10^6) hMSCs, 24 hours pre-treatment plus 16 hours sealed incubation, 0.1% v/v DMSO", "description": "as §2, §4, §5"}, "[6]": {"system": "hepG2 cells", "test": "Live-dead staining viability after sealed bottle incubation", "format": "cell-based, human", "details": "1.5(10^7) hepG2 cells sealed 16 hours; 200 μM DEAB or 20 μM DSF", "description": "In order to assess any changes in the viability of hepG2 cells due to the method of analysis, which requires the cells to be sealed inside a glass bottle for around 16 hours, cells were cultured to near-confluence using the untreated medium described earlier, and observed using a live-dead staining (Sigma, UK), and confocal microscopy. […] The cell-suspensions were then sealed inside 150 mL glass bottles and incubated at 37° C. for 16 hours. The suspensions were then removed from the bottles and assessed by the same live-dead staining."}, "[7]": {"system": "Caco2/TC7 colon tumour cell cultures", "details": "cited from earlier work"}, "[8]": {"details": "200 μM DEAB, about 1(10^7) hepG2 cells, 16 hours"}},
  "data": [
    {"smiles": "CC=O", "note": "[AA, acetaldehyde]", "values": [
      {"measurement": "reduction of headspace AA concentration by cells", "setting": "[1]; 50 mL DMEM, 16 hours at 37° C.", "value": "approximately 90%"},
      {"measurement": "headspace AA concentration after incubation with cells", "setting": "[1]; starting 59 ppbv", "value": 20, "unit": "ppbv"},
      {"measurement": "headspace AA concentration after incubation with cells", "setting": "[1]; starting 396 ppbv", "value": 48, "unit": "ppbv"},
      {"measurement": "headspace AA concentration after incubation with cells", "setting": "[1]; starting 990 ppbv", "value": 118, "unit": "ppbv"}
    ]},
    {"smiles": "CCN(CC)c1ccc(C=O)cc1", "note": "[DEAB]", "values": [
      {"measurement": "peak AA concentration in the liquid phase", "setting": "[2]; [8]", "value": 4, "unit": "µM"},
      {"measurement": "peak headspace AA concentration", "setting": "[2]; [8]", "value": "around 600 ppbv"},
      {"measurement": "headspace AA concentration with increasing DEAB concentration", "setting": "[2]; 1.5(10^7) hepG2 cells, 16 hours at 37° C., DEAB in 0.1% v/v DMSO", "value": "general increase in the AA concentration"},
      {"measurement": "decline in headspace DMS", "setting": "[3]; 0 to 25 μM DEAB, 1.5(10^7) hepG2 cells, 0.1% v/v DMSO", "value": 30, "unit": "%"},
      {"measurement": "DMS production", "setting": "[3]; 200 μM DEAB, 1(10^4) to 5(10^6) hepG2 cells, 0.1% v/v DMSO", "value": "clearly reduced"},
      {"measurement": "decline of slope of DMS concentration versus cell number", "setting": "[3]; 200 μM DEAB, 5(10^6) up to 3(10^7) hepG2 cells, 0.1% v/v DMSO", "value": "about 30%"},
      {"measurement": "effect on ALDH / ability of hMSCs to metabolise AA", "setting": "[4]", "value": "effective inhibitor of ALDH"},
      {"measurement": "effect on DMS production from DMSO", "setting": "[5]", "value": "effective at preventing DMS production from DMSO"},
      {"measurement": "viability by live-dead staining", "setting": "[6]", "value": "little or no decline in the viability"}
    ]},
    {"smiles": "C[S+](C)[O-]", "note": "[DMSO, dimethyl sulphoxide]", "values": [
      {"measurement": "liquid phase DMS concentration formed from DMSO", "setting": "[3]; 0.1% v/v DMSO in medium, overnight incubation, by Henry's Law", "value": "> 300", "unit": "nM"},
      {"measurement": "DMSO concentration causing no observable cytotoxicity", "setting": "[7]", "value": "up to 10 % (v/v)"}
    ]}
  ]
}
